Results: ChEMBL document CHEMBL3046227, “Synthesis and evaluation in vitro of 1-[2-(10-dihydroartemisininoxy) ethyl]-3-phenylurea derivatives as potential agents against cancer” (Med Chem Res, 2013)

Experiments:
HCT-116 [1] = experiment: Ratio of dihydroartemisinin IC50 to compound IC50 for Homo sapiens (human) HCT116 cells; format: functional
HepG2 = experiment: Cytotoxicity against Homo sapiens (human) HepG2 cells after 48 hr by MTT assay; format: functional, cell-based; details: HepG2, 48 h
HT-1080 = experiment: Cytotoxicity against Homo sapiens (human) HT1080 cells after 48 hr by MTT assay; format: functional, cell-based; details: HT-1080, 48 h
HCT-116 [2] = experiment: Cytotoxicity against Homo sapiens (human) HCT116 cells after 48 hr by MTT assay; format: functional, cell-based; details: HCT-116, 48 h
K562 = experiment: Cytotoxicity against Homo sapiens (human) K562 cells after 48 hr by MTT assay; format: functional, cell-based; details: K562, 48 h
HL-60 = experiment: Cytotoxicity against Homo sapiens (human) HL60 cells after 48 hr by MTT assay; format: functional, cell-based; details: HL-60, 48 h
A549 [3] = experiment: Cytotoxicity against Homo sapiens (human) A549 cells after 48 hr by MTT assay; format: functional, cell-based; details: A549, 48 h
HeLa = experiment: Cytotoxicity against Homo sapiens (human) HeLa cells after 48 hr by MTT assay; format: functional, cell-based
[4] = Cytotoxicity against Homo sapiens (human) A375-S2 cells after 48 hr by MTT assay; format: functional, cell-based; details: A375-S2, 48 h
A549 [5] = experiment: Ratio of dihydroartemisinin IC50 to compound IC50 for Homo sapiens (human) A549 cells; format: functional
MCF7 [6] = experiment: Ratio of dihydroartemisinin IC50 to compound IC50 for Homo sapiens (human) MCF7 cells; format: functional
U-937 = experiment: Cytotoxicity against Homo sapiens (human) U937 cells after 48 hr by MTT assay; format: functional, cell-based; details: U-937, 48 h
MCF7 [7] = experiment: Cytotoxicity against Homo sapiens (human) MCF7 cells after 48 hr by MTT assay; format: functional, cell-based; details: MCF7, 48 h

Row | Compound | Ratio IC50 (HCT-116 [1]) | IC50 (HepG2) | IC50 (HT-1080) | IC50 (HCT-116 [2]) | IC50 (K562) | IC50 (HL-60) | IC50 (A549 [3]) | IC50 (HeLa) | IC50 [4] | Ratio IC50 (A549 [5]) | Ratio IC50 (MCF7 [6]) | IC50 (U-937) | IC50 (MCF7 [7])
1 | C[C@H]1[C@@H](OCCNC(=O)Nc2ccc(C(F)(F)F)cc2)O[C@@H]2O[C@@]3(C)CC[C@H]4[C@H](C)CC[C@@H]1[C@@]24OO3 | 1.7 | 11.2 µM | > 100 µM | 31.3 µM | 6.97 µM | < 1000 nM | 29.5 µM | 16.6 µM | > 100 µM | 1.2 | 4 | 1.1 µM | 11.6 µM
2 | C[C@H]1[C@@H](OCCNC(=O)Nc2ccccc2)O[C@@H]2O[C@@]3(C)CC[C@H]4[C@H](C)CC[C@@H]1[C@@]24OO3 | 1.7 | 34 µM | > 100 µM | 53.8 µM | 25 µM | 3000 nM | 63.3 µM | 25.1 µM | > 100 µM | 1.2 |  | 6.06 µM | 43.7 µM
3 | Cc1c(Cl)cccc1NC(=O)NCCO[C@H]1O[C@@H]2O[C@@]3(C)CC[C@H]4[C@H](C)CC[C@@H]([C@H]1C)[C@@]24OO3 | 1.7 | 40.6 µM | > 100 µM | 22.7 µM | 9.45 µM | < 1000 nM | 26.2 µM | 25.7 µM | > 100 µM | 1.2 |  | 2.59 µM | 36.8 µM
4 | C[C@H]1[C@@H](OCCNC(=O)Nc2ccc(F)cc2)O[C@@H]2O[C@@]3(C)CC[C@H]4[C@H](C)CC[C@@H]1[C@@]24OO3 | 1.7 | 26.2 µM | 26.8 µM | 43.7 µM | 38.4 µM | 3640 nM | 43.7 µM | 35.2 µM | 33.7 µM | 1.2 |  | 25.2 µM | 46.8 µM
5 | C[C@H]1[C@H](OCCNC(=O)Nc2ccc(Cl)cc2)O[C@@H]2O[C@@]3(C)CC[C@H]4[C@H](C)CC[C@@H]1[C@@]24OO3 | 1.7 | 16.6 µM | 40.3 µM | 37.8 µM | 37.9 µM | < 1000 nM | 35.5 µM | 19.7 µM | 9.25 µM | 1.2 |  | 2.6 µM | 25.9 µM
6 | C[C@H]1[C@H](OCCNC(=O)Nc2ccc([N+](=O)[O-])cc2)O[C@@H]2O[C@@]3(C)CC[C@H]4[C@H](C)CC[C@@H]1[C@@]24OO3 | 1.7 | 34.3 µM | > 100 µM | 41 µM | > 100 µM | < 1000 nM | 49.6 µM | 64.2 µM | > 100 µM | 1.2 |  | 9.26 µM | 94.7 µM
7 | C[C@H]1[C@@H](OCCNC(=O)Nc2ccc([N+](=O)[O-])cc2)O[C@@H]2O[C@@]3(C)CC[C@H]4[C@H](C)CC[C@@H]1[C@@]24OO3 | 1.7 | 39.6 µM | 29.8 µM | 44.4 µM | 32.1 µM | 1200 nM | 53 µM | 23 µM | 35.9 µM | 1.2 |  | 7.75 µM | 42.2 µM
8 | C[C@H]1[C@@H](OCCNC(=O)Nc2ccc(Cl)cc2)O[C@@H]2O[C@@]3(C)CC[C@H]4[C@H](C)CC[C@@H]1[C@@]24OO3 | 1.7 | 36.3 µM | 43.9 µM | 39.5 µM | 32.5 µM | < 1000 nM | 42 µM | 20.6 µM | 41 µM | 1.2 |  | 9.99 µM | 32.8 µM
9 | Cc1ccccc1NC(=O)NCCO[C@H]1O[C@@H]2O[C@@]3(C)CC[C@H]4[C@H](C)CC[C@@H]([C@H]1C)[C@@]24OO3 | 1.7 | 53.2 µM | > 100 µM | 53.8 µM | 29.4 µM | 2110 nM | 41.7 µM | 64.7 µM | > 100 µM | 1.2 |  | 16.2 µM | 88.9 µM
10 | C[C@H]1[C@@H](O)O[C@@H]2O[C@@]3(C)CC[C@H]4[C@H](C)CC[C@@H]1[C@@]24OO3 [ARTENIMOL] |  | 30.1 µM | 49.1 µM | 95.4 µM | 9.81 µM | < 1000 nM | 76.2 µM | 8.85 µM | 5.48 µM |  |  | < 1 µM | 50.2 µM
11 | COc1ccc(NC(=O)NCCO[C@H]2O[C@@H]3O[C@@]4(C)CC[C@H]5[C@H](C)CC[C@@H]([C@H]2C)[C@@]35OO4)cc1 | 1.7 | 46.2 µM | > 100 µM | 50.7 µM | 55.8 µM | 2530 nM | 63.2 µM | 61.5 µM | > 100 µM | 1.2 |  | 23.7 µM | > 100 µM
12 | C[C@H]1[C@H](OCCNC(=O)Nc2ccc(C(F)(F)F)cc2)O[C@@H]2O[C@@]3(C)CC[C@H]4[C@H](C)CC[C@@H]1[C@@]24OO3 | 1.7 | 11.7 µM | > 100 µM | 46.4 µM | 26.1 µM | < 1000 nM | 37.1 µM | 31.7 µM | > 100 µM | 1.2 |  | < 1 µM | > 100 µM
13 | Cc1ccc(C)c(NC(=O)NCCO[C@H]2O[C@@H]3O[C@@]4(C)CC[C@H]5[C@H](C)CC[C@@H]([C@H]2C)[C@@]35OO4)c1 | 1.7 | 23.2 µM | > 100 µM | 47.5 µM | 23 µM | < 1000 nM | 33.7 µM | 31 µM | > 100 µM | 1.2 |  | 2.51 µM | 42.2 µM
14 | C[C@H]1[C@H](OCCNC(=O)Nc2ccc(Br)cc2)O[C@@H]2O[C@@]3(C)CC[C@H]4[C@H](C)CC[C@@H]1[C@@]24OO3 | 1.7 | 24.3 µM | 35.2 µM | 35 µM | 34.6 µM | < 1000 nM | 39.4 µM | 23.9 µM | 23.9 µM | 1.2 |  | < 1 µM | 25.9 µM
15 | C[C@H]1[C@@H](OCCNC(=O)Nc2ccc(Br)cc2)O[C@@H]2O[C@@]3(C)CC[C@H]4[C@H](C)CC[C@@H]1[C@@]24OO3 | 1.7 | 23.2 µM | > 100 µM | 26.7 µM | 27.6 µM | < 1000 nM | 34.2 µM | 18.2 µM | > 100 µM | 1.2 |  | 5.2 µM | 25.6 µM
